Data reported in patent US20100093794A1, “Use of a Compound in Obtaining Cytoskeleton Blockage and Cell Elongation” (priority 2006, published 2010).
Starred links: 1 amine or outer side, 2 acyl side, 3 side chain; linkers in the order of their positions; H or OH if unused. Positions of bridges follow the written chain, without caps; N, C: chain ends. Non-standard residues stand in square brackets, D forms with d. Residues, ends and D or L forms follow the SMILES beside them. Trp(2-yl) = O=C([C@H](Cc1c([*:3])[nH]c2ccccc12)N[*:1])[*:2]; Leu(4R-OH,5-OH) = C[C@](O)(CO)C[C@H](N)C(=O)O; cisHyp = O=C(O)[C@@H]1C[C@H](O)CN1

Tests used:
F-actin = experiment: Cytoskeleton staining and confocal microscope: actin filament (F-actin); assay type: cell-based, human
Description: (§1) The cells were cultured on coverslips kept in a p60 Petri dish, and the coverslips were kept in a CO2 incubator for 16-20 hours. After being treated with or without PT-262, the cells were fixed in 4% parafomaldehyde solution for 60 minutes at 37° C. Then the coverslips were washed three times with PBS. The F-actin and β-tubulin were stained with 20 U/ml BODIPY FL phallacidin and anti-β-tubulin Cy3 for 30 minutes at 37° C., respectively. Finally, the nuclei were stained with 2.5 ug/ml Hoechst 33258 for 30 minutes. And the cells were added with 80% Glycerin and sealed with nail varnish. The samples were examined under a Leica confocal laser scanning microscope.

[1] = system: A549 lung carcinoma cells; experiment: Cytoskeleton staining and confocal microscope: cell elongation; assay type: cell-based, human
Description: as §1

phospho-ERK = experiment: Western blot; assay type: cell-based; details: cancer cells; after treatment with PT-262
Description: (§2) At the end of treatment, the cells were lysed in the cell extract buffer containing the protease inhibitors. Amounts of proteins in samples were subjected to electrophoresis using 10-12 sodium dodecyl sulfate-polyacrylamide gels. After electrophoretic transfer of proteins onto polyvinylidene difluoride (PVDF) membranes, the membranes were dipped in 5% degreased milk containing first antibody for 24 hours at 4° C. After being washed three times with TTBS buffer solution for 5-15 minutes at room temperature, the PVDF membranes are dipped in 5% degreased milk containing second antibody for 1-2 hours at room temperature. And then the membranes were re-washed three times with TTBS buffer solution for 5-15 minutes at room temperature. Finally, the protein bands were visualized using the enhanced chemiluminescence detection system.

phospho-cdc2 = experiment: Western blot; assay type: cell-based; details: cancer cells; 5-20 uM, 24 hours
Description: as §2

Ras = experiment: Western blot; assay type: cell-based; details: cancer cells; after treatment with PT-262
Description: as §2

caspase-3 = experiment: Western blot; assay type: cell-based; details: cancer cells
Description: as §2

cyclin B1 = experiment: Western blot; assay type: cell-based; details: cancer cells; 5-20 uM, 24 hours
Description: as §2

[2] = system: A549 lung carcinoma cells; experiment: Cell growth assay; assay type: cell-based, human; details: 24 hours
Description: (§3) The A549 cell line was derived from lung carcinoma of a person. The H1299 cell line has a homozygous deletion of the P53 gene that was derived from a non-small cell lung adenocarcinoma tumor. MCF-7 cell line was derived from breast adenocarcinoma of a person. Hela cell line was derived from cervical carcinoma of a person. These cell lines are cultured in RPMI-1640 medium supplemented with 10% fetal bovine serum, 100 units/ml penicillin, 100 ug/ml streptomycin, and L-glutamine (0.03%, w/v), and cells were incubated at 37° C. and 5% CO2.
The cells were plated at a density of 5×10^5 cells per p100 Petri dish for 16-20 hours. Then the cells were treated with PT-262 of different concentrations for 24 hours. After drug treatment, the cells were washed with PBS and re-treated with trypsin, the cells were suspended and were counted by a hemocytometer.

[3] = system: A549 lung carcinoma cells; experiment: Cell cycle analysis (flow cytometer); assay type: cell-based, human; details: 24 hours
Description: as §3
(§4) The cells were plated at a density of 1×10^6 cells per p60 dish for 16-20 hours. Then the cells were treated with PT-262 for 24 hours. After drug treatment, the cells were washed with PBS and re-treated with trypsin, the cells were suspended and collected in a 15 ml centrifuge tube. After centrifugation at 1500 rpm for 5 minutes, the cells were fixed with 70% ethanol and stored at −20° C. for at least 2 hours. After being re-centrifuged at 1500 rpm for 5 minutes, the cell pellets were incubated with 4 ug/ml propidium iodine solution containing 1% Triton X-100 and 100 ug/ml RNase A for 30 minutes. The cell cycle was then analyzed by flow cytometer, and the percentage of cell cycle was quantified by ModFit Lt software (Ver. 2.0).

[4] = system: MCF-7 breast carcinoma cells; experiment: MTT assay (cytotoxicity); assay type: cell-based, human
Description: as §3
(§5) Briefly, the cells were plated in 96-well plates at a density of 1×10^4 cells/well for 16-20 hours. Then the cells were treated with pt-262 for 24 hours in serum-free RPMI-1640 medium. After drug treatment, the cells were washed with phosphate-buffered saline (PBS), and were re-cultured in complete RPMI-1640 medium for 48 hours. Subsequently, the medium was replaced and the cells were incubated with 500 ug/ml MTT in complete RPMI-1640 medium for 4 hours. The surviving cells were dissolved in DMSO after removing the MTT medium, and was measured at 565 nm using a ELISA reader.

[5] = system: Hela cervical carcinoma cells; experiment: MTT assay (cytotoxicity); assay type: cell-based, human
Description: as §3, §5

[6] = system: human A549 lung carcinoma cells; experiment: MTT assay (cytotoxicity); assay type: cell-based
Description: as §3, §5

[7] = system: A549 lung carcinoma cells; experiment: Mitochondrial membrane potential (DiOC6, flow cytometer); assay type: cell-based, human; details: as the drug concentration increased, 24 hours
Description: The cells were cultured in 60-mm Petri dish at a density of 5×10^5 cells. Then the cells were treated with PT-262 of different concentrations for 24 hours. After drug treatment, the cells were washed with PBS and were trypsinized, the cells were suspended and were counted by a hemocytometer. The cells were collected by centrifugation, and the pellets were resuspended in 70% ethanol and stored at […]20° C. for at least 2 hours. After centrifugation, the pelts were incubated with 0.5 uM DiOC6 for 30 minutes. Then cell pellets were collected by centrifugation and resuspended in 0.5 ml ice-cold PBS. Finally, fluorescence intensities of DiOC6 were analyzed on a flow cytometer.

H1299 cells = experiment: Cell cycle analysis (flow cytometer); assay type: cell-based; details: 24 hours
Description: as §3, §4

Microtubule = experiment: Cytoskeleton staining and confocal microscope: microtubule (β-tubulin); assay type: cell-based, human; details: for red fluorescence intensity of β-tubulin: A549, 50 nM, 24 hours; for microtubule polymerization: comparison of cytoskeleton inhibitors
Description: as §1

terminal cancer patients = details: cited from earlier work
[8] = comparison of cytoskeleton inhibitors
[9] = lung carcinoma cells, comparison of cytoskeleton inhibitors
[10] = Homo sapiens, treatment for 24 hours, at cell viability of 50%

For `C=C1[C@@H](C)[C@H]2[C@H](Cc3ccccc3)NC(=O)[C@]23OC(=O)/C=C/[C@H](O)CCC[C@@H](C)C/C=C/[C@H]3[C@@H]1O` [cytochalasin B, reference compound], the actin polymerization (F-actin; [8]) was “prevented” and the cell elongation [1, 9] was “didn't induce”.
For `O=C1C(N2CCCCC2)=C(Cl)C(=O)c2ncccc21` [PT-262, 7-chloro-6-piperidin-1-yl-quinoline-5,8-dione], the F-actin polymerization (F-actin; A549, 2 uM) was “induced”, the actin polymerization (F-actin; [8]) was “induction” and the “expression level of phospho-ERK” value (phospho-ERK) was “decreased”. The “levels of phospho-cdc2 protein” value (phospho-cdc2) was “noticeably decreased”, the “expression level of Ras” value (Ras) was “decreased” and the caspase-3 activation (caspase-3) was “noticeably induced”. The “levels of cyclin B1 protein” value (cyclin B1) was “noticeably decreased”, the cell elongation ([1]; A549, 2 uM) was “induced” and the “cell length of some cells” value ([1]; A549, Leica confocal software) was 160 um. For the same compound, the average cell length ([1]; A549, untreated 39.2 um, Leica confocal software) was 65.3 um, the cell elongation [1, 9] was “increased” and the growth arrest ([2]; 10 uM) was “almost completely induced”. For the same compound, the cell growth ([2]; 5-10 uM) was “concentration-dependently inhibited”, the G0/G1 fractions [3] was “decreased” and the G2/M fractions [3] was “increased”. The cell survival ratio ([4]; 1-10 uM, 24 hours) was “decreased as the concentration increased”, the IC50 ([4]; Homo sapiens, MCF7, treatment for 24 hours, at cell viability of 50%) was 2 to 4 µM and the cell survival ratio ([5]; 1-10 uM, 24 hours) was “decreased as the concentration increased”. For the same compound, the IC50 [5, 10] was 2 to 4 µM, the cell survival ratio ([6]; 1-10 uM, 24 hours) was “decreased as the concentration increased” and the IC50 [6, 10] was 2 to 4 µM. The Mitochondrial membrane potential [7] was “noticeably inhibited”, the G0/G1 fractions (H1299 cells) was “decreased” and the G2/M fractions (H1299 cells) was “increased”.
With `C[C@@H]1NC(=O)[C@H](C[C@@](C)(O)CO)NC(=O)[C@@H]2Cc3c([nH]c4ccccc34)SC[C@H](NC(=O)[C@@H]([C@H](C)O)NC1=O)C(=O)N1C[C@@H](O)C[C@H]1C(=O)N[C@@H](C)C(=O)N2` [phalloidin] (cyclo(A[dT]C[cisHyp]A[Trp(2-yl)][Leu(4R-OH,5-OH)]); thioether 3-6) the “green fluorescence intensity of F-actin” value (F-actin; A549, 24 hours) was “increased”, the actin depolymerization (F-actin; [8]) was “inhibit” and the cell elongation ([1]; A549, 24 hours) was “caused the cell elongation”.
In the case of `CC(=O)O[C@H]1C(=O)[C@@]2(C)[C@H]([C@H](OC(=O)c3ccccc3)[C@]3(O)C[C@H](OC(=O)[C@H](O)[C@@H](NC(=O)c4ccccc4)c4ccccc4)C(C)=C1C3(C)C)[C@]1(OC(C)=O)CO[C@@H]1C[C@@H]2O` [paclitaxel], the cell elongation [1, 9] is reported as “didn't induce”, the “red fluorescence intensity of β-tubulin” value (Microtubule) is reported as “increased” and the microtubule polymerization (Microtubule) is reported as “induced”. For the same compound, the suppression rate (terminal cancer patients; 40 terminal cancer patients) was 30% and the “patients reduced in tumor size by over 50%” value (terminal cancer patients; of 40 terminal cancer patients) was 12.
With `COc1cc2c(c(OC)c1OC)-c1ccc(OC)c(=O)cc1[C@@H](NC(C)=O)CC2` [colchichine] the cell elongation [1, 9] was “didn't induce”, the “red fluorescence intensity of β-tubulin” value (Microtubule) was “reduced” and the microtubule polymerization (Microtubule) was “inhibiting”.
